The values that follow come from patent US9006278B2, “Controlled release systems of pluribioactive antifungal drugs and applications thereof” (Poly-Med, Inc., priority 2010, dated 2015).

Format in all cases: cell-based
Test [1] has as its system OVCAR3 ovarian cancer cells. In words: Cell viability, CellTiter 96 AQueous One (OVCAR3). As to conditions: Homo sapiens, OVCAR-3, 48 h, 2 days. The method, then: (§1) To examine the effect of miconazole and ketoconazole on cancer cells (SKOV3, OVCAR3, and MCF7) and vascular cells (human aortic smooth muscle and umbilical vein endothelium), each cell type was seeded in separate 24-well plates at a density of approximately 50,000 to 100,000 cells/cm^2. After incubation under standard cell culture conditions (that is, a 37° C., humidified, 5% CO2 environment) for approximately 24 hours, media was aspirated from each well, and replaced with the appropriate treatments. Miconazole or ketoconazole was dissolved in ethanol to create a stock solution. […] The same volume of ethanol was added to control wells, but no drug was present. Cells were further incubated for 2 days. At that time, cell viability was measured using a commercially available kit, according to manufacturer instructions (CellTiter 96® AQueous One Solution Cell Proliferation Assay, Promega). All samples were prepared in triplicate. Percent inhibition was then calculated using the absorbance values.

For the next test, the system named is Candida albicans. As to the kind of experiment: Broth culture growth inhibition, absorbance at 600 nm (Candida albicans). The conditions noted are these: overnight (approx. 16 hours), read-out: % Inhibition C. albicans. Here is the method:
(§2) Bacterial and fungal cultures (Staphylococcus aureus and Candida albicans) were maintained according to manufacturer (ATCC) instructions. Broth was inoculated according to 0.5 McFarland standard (0.05 absorbance reading). Miconazole or ketoconazole was dissolved in ethanol to create a stock solution. Cultures were incubated overnight (approximately 16 hours), at which time relative absorbance was recorded for each sample using a spectrophotometer (600 nm wavelength). Absorbance values were then used to calculate percent inhibition.

A further test relates to MCF7 breast cancer cells. In words: Cell viability, CellTiter 96 AQueous One (MCF7). As to conditions: Homo sapiens, MCF7, 48 h, 2 days. Here is the method: as §1
Test [2] has as its system human aortic smooth muscle cells. As to the kind of experiment: Cell viability, CellTiter 96 AQueous One (smooth muscle). The conditions noted are these: 48 h, 2 days. Here is the method: as §1
Test [3] has as its system umbilical vein endothelium cells. In words: Cell viability, CellTiter 96 AQueous One (endothelium). The conditions noted are these: Homo sapiens, 48 h, 2 days, read-out: % Inhibition Endothelial. The method, then: as §1
The subject of test [4] is SKOV3 ovarian cancer cells. In words: Cell viability, CellTiter 96 AQueous One (SKOV3). The conditions noted are these: Homo sapiens, SK-OV-3, 48 h, 2 days. The method, then:
as §1

The test system of the next test is Staphylococcus aureus. As to the kind of experiment: Broth culture growth inhibition, absorbance at 600 nm (Staphylococcus aureus). The conditions noted are these: overnight (approx. 16 hours), read-out: % Inhibition S. aureus. The method, then:
as §2

In general, inhibition refers to the drop in the measured response relative to a control, in per cent. Turning to `Clc1ccc(COC(Cn2ccnc2)c2ccc(Cl)cc2Cl)c(Cl)c1` (stereo not shown) [Miconazole, miconazole], the inhibition at 20 µg/mL in test [1] (20 μg/mL) was found to be 19%; in the test on Candida albicans (20 μg/mL) it was 98.3%; in the test on MCF7 breast cancer cells (20 μg/mL), 19%; in test [2] (20 μg/mL), 58%; in test [3] (20 μg/mL), 18%; in test [4] (20 μg/mL) it was 13%. Also, in the test on Staphylococcus aureus (20 μg/mL), the inhibition at 20 µg/mL is 76.7%. Further, the inhibition at 60 µg/mL in test [1] (60 μg/mL) is 57%; with Candida albicans (60 μg/mL), 73.2%; with MCF7 breast cancer cells (60 μg/mL), 55%; in test [2] (60 μg/mL), 84%; in test [3] (60 μg/mL), 58%; in test [4] (60 μg/mL), 61%. Besides, the inhibition at 60 µg/mL in the test with Staphylococcus aureus (60 μg/mL) was found to be 65%.

Take `CC(=O)N1CCN(c2ccc(OCC3COC(Cn4ccnc4)(c4ccc(Cl)cc4Cl)O3)cc2)CC1` (stereo not shown) [Ketoconazole, ketoconazole]: the inhibition at 40 µg/mL in test [1] (40 μg/mL) was determined as 0%; in the test on Candida albicans (40 μg/mL), 93.8%; in the test with MCF7 breast cancer cells (40 μg/mL) it was 58%; in test [2] (40 μg/mL), 31%; in test [3] (40 μg/mL) it was 16%; in test [4] (40 μg/mL) it was 0%. Further, in the test on Staphylococcus aureus (40 μg/mL), the inhibition at 40 µg/mL amounted to 32.7%. Further, the inhibition at 80 µg/mL in test [1] (80 μg/mL) worked out at 57%; in the test with Candida albicans (80 μg/mL), 98.6%; in the test with MCF7 breast cancer cells (80 μg/mL) it was 50%; in test [2] (80 μg/mL), 68%; in test [3] (80 μg/mL), 38%; in test [4] (80 μg/mL), 51%. Besides, the inhibition at 80 µg/mL with Staphylococcus aureus (80 μg/mL) turned out to be 67.6%.
